Assay results as given in patent US9561234B2, “Methods for treating diseases of the retina” (Allergan, Inc., priority 2010, dated 2017).
“Also recorded” adds a separate entry of the source.

Legend:
[1] = tested on: C57B6 mice with oxygen-induced retinopathy; assay: Oxygen-induced retinopathy (hyperoxia): retinal neovascularization; type: in vivo; conditions: gavage once daily P10 through P16; evaluated on P17; FIG. 10
Protocol: Litters of newborn mice and their dams were placed in a 75% oxygen chamber from P7 to P12. The chamber contained enough food and water for 5 days and was opened only to allow drug administration to the animals. The mice were returned to room air with normal oxygen content on P12. Olanzapine in water or VEH (water) was administered once daily by gavage beginning on P10 and continuing through P16. Retinal neovascularization was evaluated on P17 after 5 days of exposure of the animals to room air. Error bars, SEM.
Oxygen-induced retinopathy (OIR)/Hyperoxia was induced in C57B6 mice using the protocol reported by Smith et al. (Smith L E, Wesolowski E, McLellan A, et al. Oxygen-induced retinopathy in the mouse. Invest Ophthalmol Vis Sci. 1994; 35(1):101-111). […] Retinal neovascularization was evaluated on P17 after 5 days of exposure of the animals to room air.
Retinal neovascularization was evaluated by angiography in mice subjected to OIR as described previously (Smith L E, Wesolowski E, McLellan A, et al. Oxygen-induced retinopathy in the mouse. Invest Ophthalmol Vis Sci. 1994; 35(1):101-111). […] Quantification of retinal neovascularization was performed as described previously (Chen J, Connor K M, Aderman C M, Smith L E. Erythropoietin deficiency decreases vascular stability in mice. J Clin Invest. 2008; 118(2):526-533). […]

[2] = tested on: blue light exposed rats; assay: Blue light study: retinal thickness by optical coherence tomography; type: in vivo, Sprague-Dawley (SD) rats; conditions: IP once per day for 3 days; OCT 7-10 days post blue light; FIG. 3
Protocol: Drug treatment was started 2 days before blue light exposure. Animals received olanzapine IP injection once per day for 3 days and the last dosing was 1 hour before blue light exposure. Rats were dark adapted for 24 hours before they were exposed to blue light with lux intensity of ˜6-7 k for 4 hours. Right after the blue light exposure, the rats were dark adapted again for another 3 days before returning to normal room light (12-hour light/12-hour dark). Optical coherence tomography (OCT) was used to evaluate the retinal thickness change caused by blue light at 7-10 days post blue light exposure. Error bars, SEM. OS=Left Eye, OD=Right Eye.
(§1) Four to five month old Sprague-Dawley (SD) male rats were used in the following study. Drug treatment was started 2 days before blue light exposure. Animals received olanzapine IP injection once per day for 3 days and the last dosing was 1 hour before blue light exposure.
For intravitreal injection (IVT), animals received olanzapine (having the structure shown below) 1 hour before blue light exposure. For topical administration, the drug was given 24 hours (BID) and one hour (QI) before blue light exposure. Water was used for parallel control vehicle IP/IVT injection or topical administration. Rats were dark adapted for 24 hours before they were exposed to blue light with lux intensity of ˜6-7 k for 4 hours. […]

[3] = tested on: blue light exposed rats; assay: H&E staining and immuno-histochemistry of rat ocular tissue after blue light exposure; type: in vivo, Sprague-Dawley rats; conditions: IP, 2-3 wks after blue light exposure
Protocol: as §1
(§2) For intravitreal injection (IVT), animals received olanzapine (having the structure shown below) 1 hour before blue light exposure. For topical administration, the drug was given 24 hours (BID) and one hour (QI) before blue light exposure. Water was used for parallel control vehicle IP/IVT injection or topical administration. Rats were dark adapted for 24 hours before they were exposed to blue light with lux intensity of ˜6-7 k for 4 hours. Right after the blue light exposure, the rats were dark adapted again for another 3 days before returning to normal room light (12-hour light/12-hour dark). Optical coherence tomography (OCT) was used to evaluate the retinal thickness change caused by blue light at 7-10 days post blue light exposure. Error bars, SEM. (FIG. 3).
Sprague-Dawley male rats 2-3 weeks after blue light exposure were euthanized with CO2 and orbits enucleated. Eyes were fixed in Davidson's fixative overnight at room temperature and transferred to 70% ethanol for 24 hrs. Further tissue processing was done by serial dehydration in 80%, 95% & 100% alcohol and Propar, followed by paraffin embedding. Whole rat eyes were transversely cut in the vertical meridian proceeding from nasal to temporal side, using a Microtome (RM2255; Leica Microsystems). Using optic nerve head as the landmark, a total of 45 serial sections with 5 microns/section were collected on 15 glass slides. Slide #s 1, 5, 10 & 15 were deparaffinized and sequentially stained using hematoxylin (nucleus) and eosin (cytoplasm) as per standard protocol to compare photoreceptor/RPE lesion between experimental groups. The rest of the slides were used to determine expressions of Rhodopsin, RPE65 and GFAP using the specific antibodies by standard immune-histochemistry techniques.

[4] = tested on: ARPE-19 cells; assay: Cell viability assay: protection of RPE cells from tBH oxidative stress; type: cell-based; conditions: for PROTECTION (%) AT 10 uM: protection of RPEs from oxidative stress (0.3 mM tBH), ARPE-19 cells
Protocol: (§3) ARPE-19 cells from ATCC were grown in DEME/F12 medium supplemented with 10% Fetal Bovine Serum (FBS) and split into 96-well plates at a density of 10,000 cells per well. Cells were incubated overnight in 0.1% FBS medium before addition of compound/drug. Stocks of compounds of interest were made at different concentrations and added to ARPE-19 cells in 0.1% FBS medium for one hour.
After one hour of compound/drug pretreatment, cells were incubated with 0.3 mM tert-butyl hydroperoxide (tBH) for 3 hours followed by three times of washing and replacement with fresh drug and medium (0.1% FBS medium) for overnight. […] Error bars, SEM. n=3.

[5] = tested on: blue light exposed rats; assay: Electroretinography (ERG) assay after blue light exposure; type: in vivo, Sprague-Dawley (SD) rats
Protocol: as §1, §2
Bilateral Flash Electroretinograms were recorded in SD rats using the Espion E^2 electroretinography system. On the day of ERG, Animals were dark adapted for at least 30 minutes. Their eyes were dilated with Tropicamide HCl (1%) and Ak-dilate (10%). Prior to ERG recording, the animal was anesthetized with intramuscular injection of 40 mg/ml Ketamine HCl and 12 mg/ml Xylazine HCl, and placed onto heated platform. The ground needle was placed in the skin under the arm and the reference needle was place in the skin above the head. Retinae were stimulated using 1 cd.s/m2 flash for an average of 10 traces at 0.1 Hz. Recording filter was set at 300 Hz. ERG responses were analyzed using Espion E^2, and Microsoft excel program. The b-wave amplitude was measured from the trough of the a-wave to the peak of the b-wave, and the a-wave was measured as the difference in amplitude between recording at onset and the trough of the negative deflection. Error bars, SEM. (FIGS. 4, 8, and 9).

[6] = tested on: laser induced choroidal neovascularization in rats; assay: Choroidal neovascularization (CNV) assay, laser induced; type: in vivo, Brown Norway rats; conditions: i.p. 1 mg/kg once a day for 3 days plus intravitreal day 1, 4 & 6; 11 days after laser; FIG. 11
Protocol: Brown Norway rats (Charles Rivers), weighing 250-300 grams each were used in the study. Drug treatment was started 2 days prior to Laser treatment. Olanzapine was given i.p. (1 mg/kg) once a day for 3 days (day −2, −1 & 0). The last dose on day 0 was delivered about 1 hr before laser treatment. Phosphate buffered saline (PBS) was used for parallel control vehicle IP injection. On day zero of the laser procedure, rat eyes (pupil) were dilated with Tropicamide HCl HCl (1%) and Ak-dilate (10%). Rats were then anesthetized with intramuscular injection of 40 mg/ml Ketamine HCL and 12 mg/ml Xylazine HCl. The fundo's was visualized using a microscope slide coverslip with Refresh Liquigel eye drops as an optical coupling agent. For each animal, 6 laser spots in each eye (360 mW power, 0.07 sec. duration, 50 μm spot size) were made with argon laser (Coherent Inc.; Santa Clara, Ca.) concentrically at approximately equal distances around the optic disc, between every 2 retinal vessels. A single 5-ul volume of the drug (olanzapine) or PBS was injected into the vitreous cavity at day 1, 4 & 6 post-laser photocoagulation procedure. At 11 days after laser treatment, animals were sacrificed by CO2 exposure and CNV formation was assayed as described previously. […] The area of fluorescence was quantified using Metamorph image analysis software (RPI, Natick, Mass.).

[7] = tested on: IL-8 secretion from RPE cells (ARPE-19); assay: IL-8 assay: Poly I:C induced IL-8 secretion from RPE cells; type: cell-based; conditions: 1 ug/ml poly I:C, 24 hours; FIG. 1B
Protocol: as §3
After one hour of drug pretreatment, cells were incubated with 1 ug/ml polyl:C for 24 hours. The cell culture supernatant was used to measure IL-8 production with IL-8 ELISA Kit (R&D Systems, D8000C). Error bars, SEM. n=3.

## Cc1cc2c(s1)Nc1ccccc1N=C2N1CCN(C)CC1 [Olanzapine, 2-methyl-4-(4-methylpiperazin-1-yl)-10H-benzo[b]thieno[2,3-e][1,4]diazepine]
[1]
  attenuation of hyperoxia induced retinal neovascularization: significantly attenuates
[2]
  protection of superior retinal thickness (OCT): significantly protects
[3]; FIG. 5
  protection of outer nuclear layer (H&E staining): significantly protects
[3]; FIG. 6
  protection from retinal rhodopsin loss (immuno-histochemistry): significantly protects
[3]; FIG. 7
  inhibition of GFAP upregulation (immuno-histochemistry): partially inhibits
  protection from RPE65 loss (immuno-histochemistry): significantly protects
[4]
  PROTECTION (%) AT 10 uM: 116%
[4]; tBH, RPE cells, FIGS. 1A, 2
  protection of RPE cells from oxidative stress (tBH) induced apoptosis / cell death: significantly protects in a dose responsive fashion; also recorded: protect
[5]; IP once per day for 3 days, ERG 7-10 days post blue light, FIG. 4
  protection of retinal a- and b-waves (ERG): significantly protects
[5]; intravitreal, 0.04, 0.2, or 1 ug/eye, 1 hour before blue light, ERG 7-10 days post, FIG. 8
  prevention of ERG alteration: significantly prevents
[5]; topical ocular dosing 24 hours (BID) and one hour before blue light, ERG 7-10 days post, FIG. 9
  protection of retinal a- and b-wave signals (ERG): significantly protects
[6]
  inhibition of laser induced choroidal neovascularization: significantly inhibits
[7]
  inhibition of Poly I:C induced IL-8 secretion from RPE cells: inhibits

## Cc1cc2c(s1)Nc1ccccc1N=C2N1CCNCC1 [Metabolite B, N-desmethyl olanzapine]
[4]
  PROTECTION (%) AT 10 uM: 129%

## Clc1ccc2c(c1)N=C(N1CCNCC1)c1ccccc1N2 [n-desmethly clozapine, N-desmethyl clozapine]
[4]
  PROTECTION (%) AT 10 uM: 77%

## Cc1cc2c(s1)Nc1ccccc1N=C2N1CC[N+](C)([O-])CC1 [Metabolite A, Olanzapine-N-oxide]
[4]
  PROTECTION (%) AT 10 uM: 103%
